Measurements published in patent publication US10172907B2, “Compositions comprising β-arrestin 1 and methods of use thereof for therapeutic modulation of aldosterone levels in heart disease” (NOVA SOUTHEASTERN UNIVERSITY, priority 2010, dated 2019).
“Also recorded” adds a separate entry of the source. Non-standard residues stand in square brackets, D forms with d. Residues, ends and D or L forms follow the SMILES beside them. Sar = CNCC(=O)O

Columns and labels:
[1] = tested on: adrenal βarr1-overexpressing post-MI rats; assay: In vivo hemodynamic analysis (cardiac contractility) of adrenal βarr1-overexpressing post-MI rats treated with sartans and CORET; set-up: species or system rat; conditions: vs. Saline
Description: (§1) In vivo studies: For the in vivo studies, post-MI rats overexpressing Purl in their adrenals received 7-day-long treatments with the agents of interest.
(§2) Aldosterone measurements: Plasma aldosterone and in vitro aldosterone secretion in the supernatant of cultured H295R cells were determined by ELISA with the Aldosterone EIA kit from ALPCO Diagnostics, Salem, N.H. (Lymperopoulos A. et al. Proc. Natl. Acad. Sci. USA 106:5825-5830 2009). In vivo adrenal gene deliveries: Adrenal-specific in vivo gene delivery in rats was performed as previously described in Lymperopoulos A. et al. Proc. Natl. Acad. Sci. USA 106:5825-5830 2009). Echocardiographic and hemodynamic measurements: Two-dimensional guided M-mode and Doppler echocardiography and closed chest cardiac catheterization were performed as described in Lymperopoulos, A. et al. Nat. Med. 13:315-323 2007. Statistical analysis: Data are presented as mean±SEM. One- or two-way ANOVA with Bonferroni test was used for analysis of numeric parameters and differences were considered significant at p<0.05. Experimental Results
(§3) Statistical analysis: p<0.05, vs. Saline, ^, p<0.05, vs. CORET (SEQ ID NO:4) or IRB, n=6 rats/group.

[2] = tested on: adrenal βarr1-overexpressing post-MI rats; assay: Echocardiography (ejection fraction) of adrenal βarr1-overexpressing post-MI rats treated with sartans and CORET; assay type: in vivo, rat; conditions: for ejection fraction (EF %) vs. Saline, in words: 3-week post-MI rats, 7 days post Adβarr1 gene transfer and concomitant treatment; for cardiac ejection fraction (EF): adrenal βarr1-overexpressing post-MI rats, 7-day treatment, saline-treated 35±0.3%
Description: as §1, §2, §3

AT1R [3] = target: T1, AT1R (Homo sapiens, UniProt P30556); assay: Inhibition of SII-induced activation of βarr2 by human AT1R in vitro (FIG. 1A); conditions: % normalized signal
T1 sequence (P30556 1-359): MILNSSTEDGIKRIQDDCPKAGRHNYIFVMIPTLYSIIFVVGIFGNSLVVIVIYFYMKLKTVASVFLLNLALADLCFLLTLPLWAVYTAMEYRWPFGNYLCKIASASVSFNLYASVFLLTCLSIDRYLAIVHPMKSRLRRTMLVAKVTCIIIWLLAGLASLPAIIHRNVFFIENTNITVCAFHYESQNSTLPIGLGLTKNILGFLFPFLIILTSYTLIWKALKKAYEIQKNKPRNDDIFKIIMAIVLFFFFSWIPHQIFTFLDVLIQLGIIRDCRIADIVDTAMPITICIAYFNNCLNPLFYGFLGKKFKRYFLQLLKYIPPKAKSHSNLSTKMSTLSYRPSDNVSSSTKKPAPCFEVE

AT1R [4] = target: T1, AT1R; assay: Biased antagonism of sartans for AT1R-stimulated βarr vs. G-protein-mediated signaling (FIG. 6); conditions: both IC50 in nM; <1 biased for βarr antagonism, >1 biased towards G-protein antagonism
Description: This ranking was derived from the ratios of individual IC50 for AT1R-βarr antagonism to IC50 for G-protein antagonism (both in nM) for each sartan.

[5] = tested on: adrenal βarr1-overexpressing post-MI rats; assay: Plasma aldosterone in adrenal βarr1-overexpressing post-MI rats treated with sartans and CORET; assay type: in vivo, rat; conditions: 3-week post-MI rats, 7 days post Adβarr1 adrenal gene transfer, 7-day treatment
Description: as §1, §2
Statistical analysis: p<0.05, vs. Saline, n=6 rats/group.

AT1R [6] = target: T1, AT1R; assay: Activation of βarr2 by human AT1R in vitro by AngII peptide analogs (FIGS. 1B-C); assay type: cell-based; conditions: for EC50: in vitro
post-MI rat hearts = assay: Masson-trichrome staining for cardiac fibrosis in post-MI rats; assay type: in vivo; conditions: 7 days concomitant drug vs. vehicle (saline)
Description: (§4) In vivo adrenal gene delivery in post-myocardial infarction (MI) rats: All animal procedures and experiments were performed in accordance with the guidelines of the IACUC committees of Thomas Jefferson and Nova Southeastern Universities. MI was performed using a known cryo-infarct method (Lymperopoulos, A. et al. Nat. Med. 13:315-323 2007). Adrenal-specific in vivo gene delivery was done essentially as described in Lymperopoulos, A. et al. (Mol. Ther. 16:302-307 2008) via direct delivery of adenovirus in the adrenal gland. […] Construction and purification of adenovirus: Recombinant adenovirus that encode full length wild-type βarr1 (Adβarr1; SEQ ID NO:1) or a rat βarr1 C-terminal fragment (Adβarr-1ct) (SEQ ID NO:3, amino acid residues 369-418 of the C-terminal of rat βarr-1 (SEQ ID NO:2); see FIG. 7A) were constructed as described in Lymperopoulos A. et al. Proc. Nati. Acad. Sci. USA 106:5825-5830 2009 and Lymperopoulos, A. et al. Nat. Med. 13:315-323 2007. […] Plasma aldosterone measurements: Rat plasma aldosterone levels were determined by EIA (Aldosterone EIA Kit, ALPCO Diagnostics, Salem, N.H., USA) as described in Lymperopoulos A. et al. Proc. Natl. Acad. Sci. USA 106:5825-5830 2009 and Mihailidou et al. Hypertension 40:124-129 2002. […]

post-MI rats [7] = assay: Plasma aldosterone (EIA) after adrenal gene delivery in post-MI rats; assay type: in vivo, rat
Description: In vivo adrenal gene delivery in post-myocardial infarction (MI) rats: All animal procedures and experiments were performed in accordance with the guidelines of the IACUC committees of Thomas Jefferson and Nova Southeastern Universities. MI was performed using a known cryo-infarct method (Lymperopoulos, A. et al. Nat. Med. 13:315-323 2007). Adrenal-specific in vivo gene delivery was done essentially as described in Lymperopoulos, A. et al. (Mol. Ther. 16:302-307 2008) via direct delivery of adenovirus in the adrenal gland. […] Construction and purification of adenovirus: Recombinant adenovirus that encode full length wild-type βarr1 (Adβarr1; SEQ ID NO:1) or a rat βarr1 C-terminal fragment (Adβarr-1ct) (SEQ ID NO:3, amino acid residues 369-418 of the C-terminal of rat βarr-1 (SEQ ID NO:2); see FIG. 7A) were constructed as described in Lymperopoulos A. et al. Proc. Nati. Acad. Sci. USA 106:5825-5830 2009 and Lymperopoulos, A. et al. Nat. Med. 13:315-323 2007. […] The black box highlights the clathrin- and AP-2 adaptin-binding domains, which are necessary for the receptor internalizing and signaling functions of βarr1 (Ferguson, S. S. Pharmacol Rev 53:1-24 2001) Transgenes were cloned into shuttle vector pAdTrack-CMV, which harbors a CMV-driven green fluorescent protein (GFP), to form the viral constructs by using standard cloning protocols. As control adenovirus, empty vector which expressed only GFP (AdGFP) was used. The resultant adenovirus were purified using two sequential rounds of CsCl density gradient ultracentrifugation as described in Lymperopoulos A. et al. Proc. Natl. Acad. Sci. USA 106:5825-5830 2009 and Lymperopoulos, A. et al. Nat. Med. 13:315-323 2007. Plasma aldosterone measurements: Rat plasma aldosterone levels were determined by EIA (Aldosterone EIA Kit, ALPCO Diagnostics, Salem, N.H., USA) as described in Lymperopoulos A. et al. Proc. Natl. Acad. Sci. USA 106:5825-5830 2009 and Mihailidou et al. Hypertension 40:124-129 2002. Echocardiographic and hemodynamic measurements: Two-dimensional guided M-mode and Doppler echocardiography using a 14-Mhz transducer (Vevo 770 Echograph, VisualSonic Inc., Toronto, Ontario, Canada) and closed chest cardiac catheterization were performed in rats as described in Lymperopoulos, A. et al. Nat. Med. 13:315-323 2007 and Rengo, G. et al. Circulation 119:89-98 2009. Three independent echocardiographic measurements were taken in both modes. […]

post-MI rats [8] = assay: Echocardiographic parameters after adrenal gene delivery in post-MI rats; assay type: in vivo, rat; conditions: Adβarr1 post-MI rats
Description: as §4

H295R cells = assay: In vitro βarr1-dependent SII-induced aldosterone secretion in H295R cells (ELISA); assay type: cell-based, human; conditions: H295R cells transfected with Adβarr1, stimulated with 1 mM SII, standard doses of agents; p<0.05 vs. SII
Description: as §2
Of note, when endogenous Purl is inhibited, no effects by drugs and peptides on SII-induced aldosterone secretion are seen (data not shown), as expected, since SII is a “biased” βarr-only agonist (Luttrell, L. M. et al. Pharmacol. Rev. 62:305-330 2010; Rajagopal, S. et al. Nat. Rev. Drug Discov. 9:373-386 2010; Kenakin, T. et al. Pharmacol. Rev. 62:265-304 2010). Statistical analysis: <0.05, vs. SII, n=3 independent experiments.

## CCCCC1=NC2(CCCC2)C(=O)N1Cc1ccc(-c2ccccc2-c2nnn[nH]2)cc1 [IRB, Irbesartan]
[1]
  myocardial systolic function in response to maximal dose of Isoproterenol (Max. Iso): severely impaired myocardial systolic function
[2]
  ejection fraction (EF %) vs. Saline, in words: further worsened cardiac function
  cardiac ejection fraction (EF): 32±1%
AT1R [3]
  relative potency for inhibition of SII-induced activation of βarr2 by human AT1R: the least potent βarr inhibitors
AT1R [4]
  ratio of IC50 for AT1R-βarr antagonism to IC50 for G-protein antagonism: 1.05
[5]
  plasma aldosterone levels vs. Saline: unable to counter the adrenal βarr1-mediated hyperaldosteronism

## CC[C@H](C)[C@H](NC(=O)[C@@H]1CCCN1C(=O)[C@H](Cc1c[nH]cn1)NC(=O)[C@@H](NC(=O)[C@@H](NC(=O)[C@@H](NC(=O)[C@H](CCCNC(=N)N)NC(=O)CNC)C(C)C)[C@@H](C)CC)[C@@H](C)CC)C(=O)O [SII, Sar^1,Ile^4,Ile^8-AngII]
AT1R [6]
  EC50: 11.2 nM

## COC(=O)[C@@H]1CC2=CC(=O)CC[C@]2(C)[C@@]23O[C@@H]2C[C@@]2(C)[C@@H](CC[C@@]24CCC(=O)O4)[C@H]13 [eplerenone]
post-MI rat hearts
  cardiac fibrosis in Adβarr1-adrenal treated rat hearts under drug treatment: markedly reduced fibrosis
post-MI rats [7]; Adβarr1 post-MI rats, 100 mg/kg/day eplerenone for 7 days
  effect on plasma aldosterone increase caused by Adβarr1 treatment: no effect
post-MI rats [8]; eplerenone 100 mg/kg/d for 7 days
  EF reduction and LVEDD increase induced by adrenal βarr1 overexpression: prevented
post-MI rats [8]; eplerenone low dose 5 mg/kg/d, data not shown
  effects of adrenal βarr1 overexpression (EF, LVEDD): prevented

## CCCCC(=O)N(Cc1ccc(-c2ccccc2-c2nnn[nH]2)cc1)[C@H](C(=O)O)C(C)C [VAL, Valsartan]
[1]
  myocardial systolic function in response to maximal dose of Isoproterenol (Max. Iso): significantly improves it
[2]
  ejection fraction (EF %) vs. Saline, in words: significantly improved
  cardiac ejection fraction (EF): 40±1%
H295R cells
  SII-induced aldosterone secretion: can inhibit
[5]
  plasma aldosterone levels vs. Saline: profound decreases
[5]; listed as valsartan
  plasma aldosterone levels vs. Saline: significant plasma aldosterone reductions

## CCOc1nc2cccc(C(=O)O)c2n1Cc1ccc(-c2ccccc2-c2nnn[nH]2)cc1 [CAN, Candesartan]
[2]
  cardiac ejection fraction (EF): 41.1±1%

## CCCCc1nc(Cl)c(CO)n1Cc1ccc(-c2ccccc2-c2nn[nH]n2)cc1 [LOS, Losartan]
post-MI rat hearts
  cardiac fibrosis in Adβarr1-adrenal treated rat hearts under drug treatment: incapable of reducing the cardiac fibrosis
post-MI rats [7]; losartan 50 mg/kg/day for 7 days post-gene delivery
  plasma aldosterone reduction by losartan in Adβarr1ct-treated post-MI rats: no significant aldosterone reduction
post-MI rats [7]; losartan 50 mg/kg/day for 7 days post-gene delivery, saline-treated 470±20
  plasma aldosterone, losartan-treated control AdGFP post-MI rats: 402 ± 10 pg/mL
post-MI rats [7]; losartan 50 mg/kg/day for 7 days post-gene delivery, saline-treated 845±150, not significant
  plasma aldosterone, losartan-treated Adβarr1 post-MI rats: 880 ± 88 pg/mL

## CCSC[C@H](NC(=O)[C@H](Cc1ccc(O)cc1)NC(=O)[C@@H](NC(=O)[C@H](CCCNC(=N)N)NC(=O)CNC)C(C)C)C(=O)N[C@@H](Cc1c[nH]cn1)C(=O)N1CCC[C@H]1C(=O)N[C@@H](CC(C)C)C(=O)O [CORET, Sar^1,Cys(Et)^5,Leu^8-AngII] (H-[Sar]RVYC(Et)HPL-OH; N-terminus and C-terminus assumed)
[1]
  myocardial systolic function in response to maximal dose of Isoproterenol (Max. Iso): severely impaired myocardial systolic function
[2]
  ejection fraction (EF %) vs. Saline, in words: further worsened cardiac function
H295R cells
  SII-induced aldosterone secretion: can enhance; also recorded: far greater aldosterone secretion in vitro than SII
AT1R [6]
  EC50: 1 nM
AT1R [6]; ratio of EC50s
  times less potent than AngII for βarr activation by the AT1R: 10 times
[5]
  plasma aldosterone levels vs. Saline: an increase; also recorded: significantly worsens hyperaldosteronism
